Data as given in the kinase profiling compilation of Christmann-Franck et al. (2016).

Assays:
Experiment in all cases: KINOMEscan competition binding
[1] = biological target: MERTK (human) (UniProt Q12866)
[2] = biological target: SIK2 (human) (UniProt Q9H0K1)
[3] = biological target: TEC (human) (UniProt P42680)
[4] = biological target: CIT (human) (UniProt O14578)
[5] = biological target: EPHA4 (human) (UniProt P54764)
[6] = biological target: ACVR2A (human) (UniProt P27037)
[7] = biological target: CDK16 (human) (UniProt Q00536)
[8] = biological target: PRKX (human) (UniProt P51817)
[9] = biological target: CDC2L2 (human) (UniProt Q9UQ88)
[10] = biological target: FLT1 (human) (UniProt P17948)
[11] = biological target: ROCK1 (human) (UniProt Q13464)
[12] = biological target: MAPK12 (human) (UniProt P53778)
[13] = biological target: PRKD2 (human) (UniProt Q9BZL6)
[14] = biological target: PRKCQ (human) (UniProt Q04759)
[15] = biological target: MYLK4 (human) (UniProt Q86YV6)
[16] = biological target: RPS6KA2 KD2 (human) (UniProt Q15349)
[17] = biological target: PIK3CD (human) (UniProt O00329)
[18] = tested on: KIT (human), P10721 [L576P]
[19] = biological target: EPHB2 (human) (UniProt P29323)
[20] = biological target: HCK (human) (UniProt P08631)
[21] = biological target: CAMK4 (human) (UniProt Q16566)
[22] = biological target: NEK9 (human) (UniProt Q8TD19)
[23] = biological target: EIF2AK1 (human) (UniProt Q9BQI3)
[24] = biological target: BMX (human) (UniProt P51813)
[25] = tested on: PIK3CA (human), P42336 [Q546K]
[26] = biological target: PAK7 (human) (UniProt Q9P286)
[27] = biological target: CAMK2G (human) (UniProt Q13555)
[28] = biological target: SRPK2 (human) (UniProt P78362)
[29] = biological target: DAPK3 (human) (UniProt O43293)
[30] = biological target: PRKAA2 (human) (UniProt P54646)
[31] = biological target: CLK2 (human) (UniProt P49760)
[32] = tested on: PIK3CA (human), P42336 [I800L]
[33] = biological target: ACVR1B (human) (UniProt P36896)
[34] = tested on: KIT (human), P10721 [V559D/T670I]
[35] = biological target: MAP2K7 (human) (UniProt O14733)
[36] = biological target: IRAK1 (human) (UniProt P51617)
[37] = biological target: CAMK2D (human) (UniProt Q13557)
[38] = biological target: STK33 (human) (UniProt Q9BYT3)
[39] = biological target: STK17B (human) (UniProt O94768)
[40] = biological target: MARK1 (human) (UniProt Q9P0L2)
[41] = biological target: ACVR2B (human) (UniProt Q13705)
[42] = biological target: FLT3 (human) (UniProt P36888)
[43] = tested on: BRAF (human), P15056 [V600E]; conditions: compound 1.0 µM

Sequence of IRAK1 (human) (P51617 whole entry, looked up): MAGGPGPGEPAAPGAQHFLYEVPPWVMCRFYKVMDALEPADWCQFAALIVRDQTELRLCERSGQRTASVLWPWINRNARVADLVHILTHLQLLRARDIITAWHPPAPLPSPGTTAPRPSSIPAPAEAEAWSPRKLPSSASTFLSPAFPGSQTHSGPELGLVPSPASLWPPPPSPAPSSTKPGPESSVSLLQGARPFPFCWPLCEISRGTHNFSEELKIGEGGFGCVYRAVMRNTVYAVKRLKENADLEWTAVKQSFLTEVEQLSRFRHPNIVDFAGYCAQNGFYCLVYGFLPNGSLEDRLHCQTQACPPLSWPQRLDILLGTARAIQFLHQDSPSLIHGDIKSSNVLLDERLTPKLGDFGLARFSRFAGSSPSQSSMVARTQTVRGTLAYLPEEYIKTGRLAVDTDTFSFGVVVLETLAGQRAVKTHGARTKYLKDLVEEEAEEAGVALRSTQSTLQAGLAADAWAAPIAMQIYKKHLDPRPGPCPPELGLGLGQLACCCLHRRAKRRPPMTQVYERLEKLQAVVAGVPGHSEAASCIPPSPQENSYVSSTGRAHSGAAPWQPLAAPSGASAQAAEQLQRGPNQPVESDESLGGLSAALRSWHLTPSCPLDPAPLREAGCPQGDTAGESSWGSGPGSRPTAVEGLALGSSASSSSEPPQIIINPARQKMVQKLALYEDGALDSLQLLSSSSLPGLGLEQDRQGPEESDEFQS
Sequence of KIT (human), P10721 [V559D/T670I] (P10721 whole entry V559D/T670I, looked up): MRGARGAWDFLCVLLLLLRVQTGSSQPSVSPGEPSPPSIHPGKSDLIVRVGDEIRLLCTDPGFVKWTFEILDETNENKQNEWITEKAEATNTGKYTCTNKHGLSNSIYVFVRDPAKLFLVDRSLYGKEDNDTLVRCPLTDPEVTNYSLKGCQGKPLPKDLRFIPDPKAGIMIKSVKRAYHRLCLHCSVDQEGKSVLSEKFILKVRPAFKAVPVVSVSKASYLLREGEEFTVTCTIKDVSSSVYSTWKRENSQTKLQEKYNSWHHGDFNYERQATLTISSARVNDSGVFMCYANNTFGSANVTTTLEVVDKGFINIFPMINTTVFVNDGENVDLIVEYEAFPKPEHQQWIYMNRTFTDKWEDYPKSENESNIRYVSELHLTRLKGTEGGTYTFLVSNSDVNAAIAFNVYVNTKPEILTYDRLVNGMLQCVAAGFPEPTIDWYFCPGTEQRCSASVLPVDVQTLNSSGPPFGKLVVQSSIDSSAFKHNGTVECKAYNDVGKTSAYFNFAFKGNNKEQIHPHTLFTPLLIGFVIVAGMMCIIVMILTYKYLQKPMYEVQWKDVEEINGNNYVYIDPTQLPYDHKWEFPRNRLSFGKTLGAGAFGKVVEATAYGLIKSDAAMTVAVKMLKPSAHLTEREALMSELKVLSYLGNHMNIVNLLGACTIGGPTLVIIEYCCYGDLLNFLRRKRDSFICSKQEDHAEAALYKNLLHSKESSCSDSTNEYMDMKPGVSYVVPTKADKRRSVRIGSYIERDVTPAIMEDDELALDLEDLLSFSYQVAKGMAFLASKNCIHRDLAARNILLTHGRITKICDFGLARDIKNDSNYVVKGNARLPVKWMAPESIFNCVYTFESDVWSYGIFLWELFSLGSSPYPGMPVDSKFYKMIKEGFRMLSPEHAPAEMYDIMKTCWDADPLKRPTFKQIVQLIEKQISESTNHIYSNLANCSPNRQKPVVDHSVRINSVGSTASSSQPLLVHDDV
Sequence of PIK3CA (human), P42336 [I800L] (P42336 whole entry I800L, looked up): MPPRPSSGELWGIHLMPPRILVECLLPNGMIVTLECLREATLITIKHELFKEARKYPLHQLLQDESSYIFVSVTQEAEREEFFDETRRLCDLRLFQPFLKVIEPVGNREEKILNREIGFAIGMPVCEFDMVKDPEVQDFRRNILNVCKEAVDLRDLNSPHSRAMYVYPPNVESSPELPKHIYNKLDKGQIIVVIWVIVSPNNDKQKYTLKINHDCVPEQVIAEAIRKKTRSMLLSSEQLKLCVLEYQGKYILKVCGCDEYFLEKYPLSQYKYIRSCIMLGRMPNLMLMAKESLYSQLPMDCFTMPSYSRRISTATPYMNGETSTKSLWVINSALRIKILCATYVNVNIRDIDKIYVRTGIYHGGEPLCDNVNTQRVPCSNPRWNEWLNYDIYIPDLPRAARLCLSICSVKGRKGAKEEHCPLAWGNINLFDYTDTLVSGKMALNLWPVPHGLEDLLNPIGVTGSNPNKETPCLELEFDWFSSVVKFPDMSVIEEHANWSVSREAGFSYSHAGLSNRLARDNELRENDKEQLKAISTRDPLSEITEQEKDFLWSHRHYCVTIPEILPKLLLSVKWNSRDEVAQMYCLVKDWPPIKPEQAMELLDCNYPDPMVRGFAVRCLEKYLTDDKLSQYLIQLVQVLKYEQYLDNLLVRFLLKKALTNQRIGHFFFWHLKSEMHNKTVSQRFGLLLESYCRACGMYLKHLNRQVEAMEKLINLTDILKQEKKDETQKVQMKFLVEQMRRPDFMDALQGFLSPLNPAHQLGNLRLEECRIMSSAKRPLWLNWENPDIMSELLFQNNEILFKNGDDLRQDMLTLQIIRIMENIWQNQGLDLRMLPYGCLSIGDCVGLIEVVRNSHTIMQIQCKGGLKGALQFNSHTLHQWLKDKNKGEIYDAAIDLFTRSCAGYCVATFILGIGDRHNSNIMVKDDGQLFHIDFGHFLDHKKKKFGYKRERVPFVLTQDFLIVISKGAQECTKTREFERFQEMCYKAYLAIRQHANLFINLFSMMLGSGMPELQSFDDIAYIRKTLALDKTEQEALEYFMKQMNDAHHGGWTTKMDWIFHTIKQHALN
Sequence of CLK2 (human) (P49760 whole entry, looked up): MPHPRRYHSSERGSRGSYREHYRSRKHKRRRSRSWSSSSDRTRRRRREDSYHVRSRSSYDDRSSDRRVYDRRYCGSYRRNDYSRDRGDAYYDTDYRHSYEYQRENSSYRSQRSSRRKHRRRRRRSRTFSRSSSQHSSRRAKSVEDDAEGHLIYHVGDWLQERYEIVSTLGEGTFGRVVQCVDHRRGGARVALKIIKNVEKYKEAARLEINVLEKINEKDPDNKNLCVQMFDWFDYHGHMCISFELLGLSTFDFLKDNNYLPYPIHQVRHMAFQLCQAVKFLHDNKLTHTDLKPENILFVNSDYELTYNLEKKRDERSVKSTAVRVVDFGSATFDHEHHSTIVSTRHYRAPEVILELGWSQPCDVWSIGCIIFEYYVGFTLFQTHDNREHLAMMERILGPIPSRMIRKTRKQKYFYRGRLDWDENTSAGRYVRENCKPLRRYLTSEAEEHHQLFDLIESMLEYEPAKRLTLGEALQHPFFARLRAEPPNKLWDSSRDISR
Sequence of PRKX (human) (P51817 whole entry, looked up): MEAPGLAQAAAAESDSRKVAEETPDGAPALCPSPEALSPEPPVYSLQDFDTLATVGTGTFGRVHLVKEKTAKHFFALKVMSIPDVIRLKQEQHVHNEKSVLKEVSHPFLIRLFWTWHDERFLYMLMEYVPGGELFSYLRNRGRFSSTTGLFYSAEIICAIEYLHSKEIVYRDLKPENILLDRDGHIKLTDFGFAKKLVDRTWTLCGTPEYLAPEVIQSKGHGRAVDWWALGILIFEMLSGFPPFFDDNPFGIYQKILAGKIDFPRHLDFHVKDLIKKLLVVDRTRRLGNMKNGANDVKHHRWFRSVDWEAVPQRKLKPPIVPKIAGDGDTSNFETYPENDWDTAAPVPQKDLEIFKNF
Sequence of MYLK4 (human) (Q86YV6 whole entry, looked up): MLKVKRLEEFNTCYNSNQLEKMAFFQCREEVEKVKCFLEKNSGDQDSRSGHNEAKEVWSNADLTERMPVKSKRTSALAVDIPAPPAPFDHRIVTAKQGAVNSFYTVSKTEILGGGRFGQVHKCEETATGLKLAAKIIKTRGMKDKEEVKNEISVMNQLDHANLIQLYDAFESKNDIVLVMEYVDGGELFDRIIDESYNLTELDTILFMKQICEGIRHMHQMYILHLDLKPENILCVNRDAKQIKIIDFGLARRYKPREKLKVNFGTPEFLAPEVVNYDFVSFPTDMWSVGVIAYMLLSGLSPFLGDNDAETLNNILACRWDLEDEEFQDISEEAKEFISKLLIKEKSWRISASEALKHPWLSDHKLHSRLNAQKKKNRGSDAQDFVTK
Sequence of DAPK3 (human) (O43293 whole entry, looked up): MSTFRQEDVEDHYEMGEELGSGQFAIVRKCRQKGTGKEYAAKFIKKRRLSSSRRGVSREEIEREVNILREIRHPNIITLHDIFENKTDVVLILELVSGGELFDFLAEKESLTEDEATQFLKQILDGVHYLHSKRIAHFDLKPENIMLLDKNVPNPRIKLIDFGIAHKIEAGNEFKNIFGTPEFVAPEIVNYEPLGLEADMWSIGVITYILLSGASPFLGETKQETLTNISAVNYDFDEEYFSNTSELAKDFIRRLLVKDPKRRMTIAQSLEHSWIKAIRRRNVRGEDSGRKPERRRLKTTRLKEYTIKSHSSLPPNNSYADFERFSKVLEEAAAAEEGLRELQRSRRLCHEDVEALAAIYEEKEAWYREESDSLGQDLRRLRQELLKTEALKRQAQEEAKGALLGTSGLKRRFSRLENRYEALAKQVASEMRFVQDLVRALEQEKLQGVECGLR
Sequence of ACVR2B (human) (Q13705 whole entry, looked up): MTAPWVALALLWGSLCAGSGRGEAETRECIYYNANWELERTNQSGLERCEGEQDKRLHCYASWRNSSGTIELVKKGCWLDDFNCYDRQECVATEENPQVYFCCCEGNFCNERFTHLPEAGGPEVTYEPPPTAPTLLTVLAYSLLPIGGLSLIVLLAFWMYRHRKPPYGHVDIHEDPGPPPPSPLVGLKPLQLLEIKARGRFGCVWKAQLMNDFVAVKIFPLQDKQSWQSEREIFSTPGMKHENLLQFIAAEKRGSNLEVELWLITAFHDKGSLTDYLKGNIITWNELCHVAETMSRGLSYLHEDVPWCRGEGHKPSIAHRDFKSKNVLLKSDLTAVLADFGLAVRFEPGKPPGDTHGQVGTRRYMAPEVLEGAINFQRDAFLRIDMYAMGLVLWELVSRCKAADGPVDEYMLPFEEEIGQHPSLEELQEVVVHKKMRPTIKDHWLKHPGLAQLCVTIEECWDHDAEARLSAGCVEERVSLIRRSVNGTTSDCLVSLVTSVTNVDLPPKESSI
Sequence of KIT (human), P10721 [L576P] (P10721 whole entry L576P, looked up): as the sequence (P10721 whole entry V559D/T670I, looked up) above, with D559V, L576P, I670T counted along it

`CN(C)C/C=C/C(=O)Nc1cccc(C(=O)Nc2ccc(Nc3nccc(-c4c(-c5ccccc5)nn5ccccc45)n3)cc2)c1` showed a kinase still bound, per cent of control ([1]; compound 1.0 µM) of 49%, a kinase still bound, per cent of control ([2]; compound 1.0 µM) of 42% and a kinase still bound, per cent of control ([3]; compound 1.0 µM) of 100%. For the same compound, the Kd [4] was 0.095 µM, the kinase still bound, per cent of control ([4]; compound 1.0 µM) was 0.3% and the kinase still bound, per cent of control ([5]; compound 1.0 µM) was 89%. It also gave a kinase still bound, per cent of control ([6]; compound 1.0 µM) of 5.1%, a kinase still bound, per cent of control ([7]; compound 1.0 µM) of 100% and a kinase still bound, per cent of control ([8]; compound 1.0 µM) of 94%. For the same compound, the kinase still bound, per cent of control ([9]; compound 1.0 µM) was 32%, the kinase still bound, per cent of control ([10]; compound 1.0 µM) was 9.3% and the kinase still bound, per cent of control ([11]; compound 1.0 µM) was 59%. It also gave a kinase still bound, per cent of control ([12]; compound 1.0 µM) of 94%, a kinase still bound, per cent of control ([13]; compound 1.0 µM) of 15% and a kinase still bound, per cent of control ([14]; compound 1.0 µM) of 28%. It also gave a kinase still bound, per cent of control ([15]; compound 1.0 µM) of 100%, a kinase still bound, per cent of control ([16]; compound 1.0 µM) of 82% and a kinase still bound, per cent of control ([17]; compound 1.0 µM) of 95%. For the same compound, the kinase still bound, per cent of control ([18]; compound 1.0 µM) was 3%, the kinase still bound, per cent of control ([19]; compound 1.0 µM) was 67% and the kinase still bound, per cent of control ([20]; compound 1.0 µM) was 23%. It also gave a kinase still bound, per cent of control ([21]; compound 1.0 µM) of 100%, a kinase still bound, per cent of control ([22]; compound 1.0 µM) of 100% and a kinase still bound, per cent of control ([23]; compound 1.0 µM) of 76%. For the same compound, the kinase still bound, per cent of control ([24]; compound 1.0 µM) was 76%, the kinase still bound, per cent of control ([25]; compound 1.0 µM) was 100% and the kinase still bound, per cent of control ([26]; compound 1.0 µM) was 92%. It also gave a kinase still bound, per cent of control ([27]; compound 1.0 µM) of 100%, a kinase still bound, per cent of control ([28]; compound 1.0 µM) of 85% and a kinase still bound, per cent of control ([29]; compound 1.0 µM) of 93%. It also gave a kinase still bound, per cent of control ([30]; compound 1.0 µM) of 90%, a kinase still bound, per cent of control ([31]; compound 1.0 µM) of 90% and a kinase still bound, per cent of control ([32]; compound 1.0 µM) of 77%. It also gave a kinase still bound, per cent of control ([33]; compound 1.0 µM) of 8.4%, a kinase still bound, per cent of control ([34]; compound 1.0 µM) of 4% and a kinase still bound, per cent of control ([35]; compound 1.0 µM) of 89%. For the same compound, the kinase still bound, per cent of control ([36]; compound 1.0 µM) was 2%, the kinase still bound, per cent of control ([37]; compound 1.0 µM) was 100% and the kinase still bound, per cent of control ([38]; compound 1.0 µM) was 91%. For the same compound, the kinase still bound, per cent of control ([39]; compound 1.0 µM) was 100%, the kinase still bound, per cent of control ([40]; compound 1.0 µM) was 100% and the kinase still bound, per cent of control ([41]; compound 1.0 µM) was 9.6%. For the same compound, the kinase still bound, per cent of control ([42]; compound 1.0 µM) was 1% and the kinase still bound, per cent of control [43] was 21%.
`Cc1ccc(NC(=O)c2ccc(NC(=O)/C=C/CN(C)C)cc2)cc1Nc1nccc(-c2cccnc2)n1` gave a kinase still bound, per cent of control ([1]; compound 10.0 µM) of 81%, a kinase still bound, per cent of control ([2]; compound 10.0 µM) of 80% and a kinase still bound, per cent of control ([3]; compound 10.0 µM) of 100%. The kinase still bound, per cent of control ([4]; compound 10.0 µM) was 59%, the kinase still bound, per cent of control ([5]; compound 10.0 µM) was 100% and the kinase still bound, per cent of control ([6]; compound 10.0 µM) was 82%. For the same compound, the kinase still bound, per cent of control ([7]; compound 10.0 µM) was 100%, the kinase still bound, per cent of control ([8]; compound 10.0 µM) was 43% and the kinase still bound, per cent of control ([9]; compound 10.0 µM) was 100%. It also gave a kinase still bound, per cent of control ([10]; compound 10.0 µM) of 91%, a kinase still bound, per cent of control ([11]; compound 10.0 µM) of 59% and a kinase still bound, per cent of control ([12]; compound 10.0 µM) of 94%. It also gave a kinase still bound, per cent of control ([13]; compound 10.0 µM) of 100%, a kinase still bound, per cent of control ([14]; compound 10.0 µM) of 100% and a kinase still bound, per cent of control ([15]; compound 10.0 µM) of 55%. The kinase still bound, per cent of control ([16]; compound 10.0 µM) was 86%, the kinase still bound, per cent of control ([17]; compound 10.0 µM) was 95% and the kinase still bound, per cent of control ([18]; compound 10.0 µM) was 0%. It also gave a kinase still bound, per cent of control ([19]; compound 10.0 µM) of 100%, a kinase still bound, per cent of control ([20]; compound 10.0 µM) of 89% and a kinase still bound, per cent of control ([21]; compound 10.0 µM) of 100%. For the same compound, the kinase still bound, per cent of control ([22]; compound 10.0 µM) was 100%, the kinase still bound, per cent of control ([23]; compound 10.0 µM) was 94% and the kinase still bound, per cent of control ([24]; compound 10.0 µM) was 100%. The kinase still bound, per cent of control ([25]; compound 10.0 µM) was 94%, the kinase still bound, per cent of control ([26]; compound 10.0 µM) was 72% and the kinase still bound, per cent of control ([27]; compound 10.0 µM) was 95%. The kinase still bound, per cent of control ([28]; compound 10.0 µM) was 100%, the kinase still bound, per cent of control ([29]; compound 10.0 µM) was 75% and the kinase still bound, per cent of control ([30]; compound 10.0 µM) was 56%. The kinase still bound, per cent of control ([31]; compound 10.0 µM) was 100%, the kinase still bound, per cent of control ([32]; compound 10.0 µM) was 88% and the kinase still bound, per cent of control ([33]; compound 10.0 µM) was 70%. It also gave a kinase still bound, per cent of control ([34]; compound 10.0 µM) of 18%, a kinase still bound, per cent of control ([35]; compound 10.0 µM) of 100% and a kinase still bound, per cent of control ([36]; compound 10.0 µM) of 13%. The kinase still bound, per cent of control ([37]; compound 10.0 µM) was 100%, the kinase still bound, per cent of control ([38]; compound 10.0 µM) was 97% and the kinase still bound, per cent of control ([39]; compound 10.0 µM) was 64%. It also gave a kinase still bound, per cent of control ([40]; compound 10.0 µM) of 93%, a kinase still bound, per cent of control ([41]; compound 10.0 µM) of 84% and a kinase still bound, per cent of control ([42]; compound 10.0 µM) of 75%.
Work on `CN(C)C/C=C/C(=O)Nc1cccc(C(=O)Nc2ccc(Nc3nccc(/C(C#N)=C4\Nc5ccccc5S4)n3)cc2)c1` yielded a kinase still bound, per cent of control ([1]; compound 1.0 µM) of 66%, a kinase still bound, per cent of control ([2]; compound 1.0 µM) of 100% and a kinase still bound, per cent of control ([3]; compound 1.0 µM) of 100%. The kinase still bound, per cent of control ([4]; compound 1.0 µM) was 65%, the kinase still bound, per cent of control ([5]; compound 1.0 µM) was 100% and the kinase still bound, per cent of control ([6]; compound 1.0 µM) was 79%. The kinase still bound, per cent of control ([7]; compound 1.0 µM) was 100%, the kinase still bound, per cent of control ([8]; compound 1.0 µM) was 82% and the kinase still bound, per cent of control ([9]; compound 1.0 µM) was 39%. It also gave a kinase still bound, per cent of control ([10]; compound 1.0 µM) of 32%, a kinase still bound, per cent of control ([11]; compound 1.0 µM) of 100% and a kinase still bound, per cent of control ([12]; compound 1.0 µM) of 100%. For the same compound, the kinase still bound, per cent of control ([13]; compound 1.0 µM) was 100%, the kinase still bound, per cent of control ([14]; compound 1.0 µM) was 100% and the kinase still bound, per cent of control ([15]; compound 1.0 µM) was 20%. For the same compound, the kinase still bound, per cent of control ([16]; compound 1.0 µM) was 100%, the kinase still bound, per cent of control ([17]; compound 1.0 µM) was 100% and the kinase still bound, per cent of control ([18]; compound 1.0 µM) was 100%. The kinase still bound, per cent of control ([19]; compound 1.0 µM) was 77%, the kinase still bound, per cent of control ([20]; compound 1.0 µM) was 100% and the kinase still bound, per cent of control ([21]; compound 1.0 µM) was 100%. It also gave a kinase still bound, per cent of control ([22]; compound 1.0 µM) of 100%, a kinase still bound, per cent of control ([23]; compound 1.0 µM) of 100% and a kinase still bound, per cent of control ([24]; compound 1.0 µM) of 88%. For the same compound, the kinase still bound, per cent of control ([25]; compound 1.0 µM) was 100%, the kinase still bound, per cent of control ([26]; compound 1.0 µM) was 69% and the kinase still bound, per cent of control ([27]; compound 1.0 µM) was 100%. It also gave a kinase still bound, per cent of control ([28]; compound 1.0 µM) of 100%, a kinase still bound, per cent of control ([29]; compound 1.0 µM) of 100% and a kinase still bound, per cent of control ([30]; compound 1.0 µM) of 100%. For the same compound, the kinase still bound, per cent of control ([31]; compound 1.0 µM) was 100%, the kinase still bound, per cent of control ([32]; compound 1.0 µM) was 100% and the kinase still bound, per cent of control ([33]; compound 1.0 µM) was 96%. It also gave a Kd [34] of 0.16 µM, a kinase still bound, per cent of control ([34]; compound 1.0 µM) of 6.6% and a kinase still bound, per cent of control ([35]; compound 1.0 µM) of 100%. It also gave a kinase still bound, per cent of control ([36]; compound 1.0 µM) of 1.2%, a kinase still bound, per cent of control ([37]; compound 1.0 µM) of 100% and a kinase still bound, per cent of control ([38]; compound 1.0 µM) of 100%. It also gave a kinase still bound, per cent of control ([39]; compound 1.0 µM) of 100%, a kinase still bound, per cent of control ([40]; compound 1.0 µM) of 100% and a kinase still bound, per cent of control ([41]; compound 1.0 µM) of 100%. It also gave a kinase still bound, per cent of control ([42]; compound 1.0 µM) of 23%.
